Measurements: EP2457907A1, “Flavagline derivatives as neuroprotective agents” (Université de Strasbourg, priority 2010, dated 2012)

Columns and labels:
[1] = test system: primary cultures of mouse cerebellar neurons; assay: Neuroprotection against cisplatin-induced apoptosis (MTT assay); assay type: cell-based; conditions: flavagline derivative 1 nM, cisplatin 2.5 µM, 48 hours; numbers only in Figure 3
Description: The in vitro neuroprotectant activity against neurotoxicity of an antineoplastic agent was assayed on apoptosis induced by cisplatin (2.5 µM) in primary cultures of mouse cerebellar neurons. Neuronal survival was measured by MTT assay.
Cerebellar granular neurons were dissected from 7-day old mice as described previously (Benosman et al., 2007). Briefly, after enzymatic and mechanical dissociation, cells were plated at a density of 500 cells/mm^2 on 0.1 mg/ml polyornithine-pre-coated culture dishes and were grown at 37 °C in a humidified atmosphere (5% CO2 / 95% air). Plating culture medium contained DMEM (Dulbecco's modified Eagle's medium; Life Technology) supplemented with 10% heat-inactivated horse serum (Life Technology), 100 nM insulin (Life Technology), […] gentamycin (Life Technology) and 25 mM KCl. […]
Mature neurons were cultured in 96-well culture dishes (Costar) and incubated for 48 hours in presence of cisplatine (2.5 µM) and flavagline derivative (1 nM) (which were both added into the medium at the same time). […] Plates were stirred at room temperature to ensure that all crystals were dissolved and read on a Bio-Rad 680 micro-ELISA plate-reader, using a test wavelength of 490 nm and a non-specific wavelength of 650 nm for background absorbency. […]

[2] = test system: primary rat mesencephalic neurons; assay: Neuroprotection against MPP+-induced apoptosis (in vitro model of Parkinson's disease), TH immunostaining; assay type: cell-based; conditions: 3µM MPP+; numbers only in Figure 4
Description: The neuroprotectant activity was tested in a cellular model of Parkinson's disease on primary mesencephalic cultures of rat embryos treated by MPP^+ (3µM) (Hoglinger et al. 2003).
Postmitotic dopaminergic neurons from the ventral mesencephalon of embryonic day 15.5 Wistar rat embryos (CERJ, Le Genest St. Isle, France) were dissociated mechanically, plated onto polyethylenimine-precoated 24-well culture plates, grown in N5 medium supplemented with 5 mM glucose, 5% horse serum and 2.5% fetal calf serum, as described previously (Michel et al., 1989). After 3 days, fetal calf serum was reduced to 0.5% to limit astrocyte proliferation. All experiments were initiated at day 5 in N5 medium containing 1 % horse serum and 0.1 % fetal calf serum. For each experiment MPP^+ (Sigma) was diluted to 10 mM in H2O. Cells were fixed with 4% formaldehyde for immunocytochemistry. Dopaminergic neurons were visualized by immunocytochemical detection of tyrosine hydroxylase (TH).

Row | SMILES | protection of neurons against apoptosis induced by cisplatin (neuronal survival) [1] | protection against MPP+-induced neurodegeneration (TH-positive dopaminergic neurons) [2]
1 | COc1cc(OC)c2c(c1)OC1(c3ccc(Br)cc3)C(c3cccc(F)c3)CC(NC(=O)N(C)C)C21O (centres unmarked) [FL37] | able to prevent or limit neuronal cell apoptosis | able to prevent or limit neuronal cell degeneration
2 | COc1cc(OC)c2c(c1)OC1(c3ccc(Br)cc3)C(c3cccc(F)c3)CC(NC=O)C21O (centres unmarked) [FL32, N-(3a-(4-Bromophenyl)-3-(3-fluorophenyl)-8b-hydroxy-6,8-dimethoxy-2,3,3a,8b-tetrahydro-1H-cyclopenta[b]benzofuran-1-yl)formamide] |  | able to prevent or limit neuronal cell degeneration
3 | COc1cc(OC)c2c(c1)OC1(c3ccc(Br)cc3)C(c3ccccc3)CC(NC=O)C21O (centres unmarked) [FL23, N-(3a-(4-Bromophenyl)-8b-hydroxy-6,8-dimethoxy-3-phenyl-2,3,3a,8b-tetrahydro-1H-cyclopenta[b]benzofuran-1-yl)formamide] | able to prevent or limit neuronal cell apoptosis | able to prevent or limit neuronal cell degeneration
